Here are results for two molecules from EP2604265A1, “P2x7 antagonists as frontline or adjunctive treatment against status epilepticus” (Royal College of Surgeons in Ireland (RCSI), priority 2011, dated 2013).

For one assay, the system named is IL-1β. The assay is described as follows: Western blot of hippocampal IL-1β after SE. As to conditions: ipsilateral hippocampus, 24 h after KA. The assay is classed as in vivo, mice. The procedure: Adult male C57BL/6 mice (20-25 g) were obtained from Harlan UK (Blackthorn, UK). Mice were first anesthetized using isoflurane (3-5%) and maintained normothermic by means of a feedback-controlled heat blanket (Harvard Apparatus Ltd, Kent, UK). Mice were next placed in a stereotaxic frame and three partial craniectomies performed to affix cortical skull-mounted EEG electrodes (Bilaney Consultants Ltd, Sevenoaks, UK). EEG was recorded using a Grass Comet XL digital EEG (Medivent Ltd, Lucan, Ireland). A guide cannula was affixed (coordinates from Bregma: AP = 0.94; L = 2.85 mm) and the assembly fixed in place with dental cement. Anesthesia was then discontinued and freely moving mice were placed inside a clear perspex recording chamber. […]
Western blotting was performed as previously described (Engel et al., 2010). […] Protein concentration was determined and then 20 or 50 µg samples boiled in gel-loading buffer and separated by 10, 12 or 15% sodium dodecyl sulphate-polyacrylamide gel electrophoresis. […] Gel band image densities were captured using a Fuji-film LAS-3000 and analyzed using Alpha-EaseFC4.0 software as described (Engel et al., 2010).
In general terms: In western blotting, separated proteins are transferred to a membrane and probed.

The next assay has as its target T1, P2X2 (Homo sapiens, UniProt Q9UBL9).
T1 sequence (Q9UBL9 1-471): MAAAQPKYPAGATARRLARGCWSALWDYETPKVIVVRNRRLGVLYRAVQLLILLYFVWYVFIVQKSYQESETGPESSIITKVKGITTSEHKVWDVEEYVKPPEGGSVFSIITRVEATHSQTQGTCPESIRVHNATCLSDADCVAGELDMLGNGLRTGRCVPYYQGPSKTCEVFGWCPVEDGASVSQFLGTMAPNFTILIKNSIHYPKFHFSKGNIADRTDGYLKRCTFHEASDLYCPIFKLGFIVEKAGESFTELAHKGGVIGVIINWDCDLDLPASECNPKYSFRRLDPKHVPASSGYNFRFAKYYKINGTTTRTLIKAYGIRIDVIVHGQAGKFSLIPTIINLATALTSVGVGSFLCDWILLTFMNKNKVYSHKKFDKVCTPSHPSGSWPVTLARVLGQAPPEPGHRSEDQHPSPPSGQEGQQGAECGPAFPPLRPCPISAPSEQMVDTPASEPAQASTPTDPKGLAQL
Conditions: selectivity of BBG; cited from earlier work.

The test system of assay [1] is 10 day old Sprague Dawley rat pups. The assay is described as follows: Neonatal SE model, intra-amygdala KA in P10 rat pups, EEG. As to conditions: 150 µmol/kg intraperitoneally, 40 min post-KA. The assay is classed as in vivo. The procedure:
10 day old Sprague Dawley rat pups were obtained from Harlan UK Limited (Blackthorn, UK). Rat pups were equipped with skull surface EEG and given intra-amygdala microinjection of kainic acid (2 µg) via an implanted guide cannula. P10 rat pups develop SE shortly after KA injection. Seizures in the model are propagated to the hippocampus and surface EEG recordings have previously shown a transition to low amplitude high frequency EEG, developing into high amplitude high frequency epileptiform EEG seizures. The pups display behaviour including initial masticatory movements and salivation, developing to periods of facial and forelimb myoclonus and progressing to the most commonly observed behaviour of wild running, loss of posture and swimming motions. The high amplitude high frequency spiking is sustained and corresponds to wild running and swimming behaviours during recordings 1-2 h after KA. By 4 hours, continuous seizures have abated but the EEG continues to display intermittent lower-amplitude high frequency spiking and high amplitude low frequency spikes even after 24 h. The pathological consequences of neonatal seizures in the model include hippocampal cell death and the animals later display unilateral hippocampal sclerosis.
Digitized EEG recordings were analyzed off-line using manual assessment and automated software. The occurrence of high amplitude high frequency spiking during seizures is synonymous with injury-causing electrographic seizures during SE (also termed type IV electrographic seizures) (Lowenstein et al., 1991; Henshall et al., 2000). The duration of high-frequency (>5 Hz) high-amplitude (>2× baseline) polyspike discharges of ≥5 s duration (HAHFDs) was counted by a reviewer blind to treatment. Further EEG analysis was performed by uploading EEG into Labchart7 software (ADInstruments) to calculate the power spectral density (total power, a measure of the input signal's power (amplitude) over frequency) EEG spectrogram (spectral power against frequency and time). […]

As to `CCOc1ccc(Nc2ccc(C(=C3C=CC(=[N+](CC)Cc4cccc(S(=O)(=O)[O-])c4)C=C3C)c3ccc(N(CC)Cc4cccc(S(=O)(=O)O)c4)cc3C)cc2)cc1` [BBG, Brilliant Blue G], the “IL-1β induction after SE” value with IL-1β is reported as “significantly reduced”. Moreover, the “inhibition of P2X2” value on P2X2 is reported as “low micromolar range”.

As for `Cl.Clc1cccc(-c2nnnn2Cc2cccnc2)c1Cl` [A-438079, 3-[[5-(2,3-Dichlorophenyl)-1H-tetrazol-1-yl]methyl]pyridine hydrochloride], the seizures entry in assay [1] (P10 rat pups) was “strongly reduced”. Further, in assay [1] (vs vehicle (PBS)), the amplitude entry is reported as “less amplitude” and the total power result was “less total power”.
